± gives the standard deviation of the averaged measurements.
Assays:
[1] = TIMS collisional cross section (CCS, N2) of the lipid ion; higher = larger ion cross section; conditions: ionization mode: negative, one isomer drawn
Procedure: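 Lipid extracts of human plasma (NIST SRM 1950), mouse liver or HeLa cells were separated by nanoflow C18 LC (30 min gradient) and analysed by TIMS-PASEF on a timsTOF Pro. Ion mobility was calibrated with the Agilent tuning mix (negative mode ions) and converted to collisional cross sections (Mason–Schamp, N2).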

[2] = as above; conditions: ionization mode: positive, one isomer drawn

CCCCCCCCCCCCCCCC(=O)OC[C@@H](O)COP(=O)([O-])OCC[N+](C)(C)C [LPC 16:0_0:0]
TIMS collisional cross section ([1]; sample type: Human plasma, ion (formula + adduct): [C24H50NO7P+Cl] 1-): 234.8 Å²
TIMS collisional cross section ([1]; sample type: Human plasma, ion (formula + adduct): [C24H50NO7P+HCOO] 1-): 238.02 ± 0.4 Å²
TIMS collisional cross section ([1]; sample type: Human plasma, ion (formula + adduct): [C24H50NO7P-CH3] 1-): 218.1 Å²
TIMS collisional cross section ([1]; sample type: Mouse Liver, ion (formula + adduct): [C24H50NO7P+HCOO] 1-): 241.2 ± 5.1 Å²
TIMS collisional cross section ([1]; sample type: Mouse Liver, ion (formula + adduct): [C24H50NO7P-CH3] 1-): 218.7 Å²

CCCCCC/C=C/CCCCCCCC(=O)OC[C@@H](O)COP(=O)([O-])OCC[N+](C)(C)C [LPC 16:1_0:0]
TIMS collisional cross section ([1]; sample type: Human plasma, ion (formula + adduct): [C24H48NO7P+HCOO] 1-): 236.14 ± 0.68 Å²
TIMS collisional cross section ([1]; sample type: Human plasma, ion (formula + adduct): [C24H48NO7P-CH3] 1-): 237.8 Å²
TIMS collisional cross section ([1]; sample type: Mouse Liver, ion (formula + adduct): [C24H48NO7P+HCOO] 1-): 235 ± 0.42 Å²

CCCCCCCCCCCCCCCCCC(=O)OC[C@@H](O)COP(=O)([O-])OCC[N+](C)(C)C [LPC 18:0_0:0]
TIMS collisional cross section ([1]; sample type: Human plasma, ion (formula + adduct): [C26H54NO7P+HCOO] 1-): 246.01 ± 2.8 Å²
TIMS collisional cross section ([1]; sample type: Human plasma, ion (formula + adduct): [C26H54NO7P-CH3] 1-): 225.5 Å²
TIMS collisional cross section ([1]; sample type: Mouse Liver, ion (formula + adduct): [C26H54NO7P+HCOO] 1-): 244.8 ± 0.42 Å²

CC/C=C\C/C=C\C/C=C\CCCCCCCC(=O)OC[C@@H](O)COP(=O)([O-])OCC[N+](C)(C)C [LPC 18:3_0:0]
TIMS collisional cross section ([1]; sample type: Human plasma, ion (formula + adduct): [C26H48NO7P+HCOO] 1-): 238.3 ± 0.42 Å²
TIMS collisional cross section ([1]; sample type: Human plasma, ion (formula + adduct): [C26H48NO7P-CH3] 1-): 220.2 Å²

CCCCCCCCCCCCCCCCCCCC(=O)OC[C@@H](O)COP(=O)([O-])OCC[N+](C)(C)C [LPC 20:0_0:0]
TIMS collisional cross section ([1]; sample type: Human plasma, ion (formula + adduct): [C28H58NO7P+HCOO] 1-): 253 Å²

CC/C=C\C/C=C\C/C=C\C/C=C\C/C=C\C/C=C\CCC(=O)OC[C@@H](COC(=O)CCCCCCC/C=C\C/C=C\CCCCC)OC(=O)CCC/C=C\C/C=C\C/C=C\C/C=C\CCCCC [TG 18:2_20:4_22:6] (ion (formula + adduct): [C63H98O6+NH4] 1+)
TIMS collisional cross section ([2]; sample type: Liver): 330.4 Å²

CC/C=C\C/C=C\C/C=C\C/C=C\C/C=C\C/C=C\CCC(=O)OC[C@@H](COC(=O)CCCCCCC/C=C\C/C=C\CCCCC)OC(=O)CCCCC/C=C\C/C=C\C/C=C\C/C=C\CCCCC [TG 18:2_22:4_22:6] (ion (formula + adduct): [C65H102O6+NH4] 1+)
TIMS collisional cross section ([2]; sample type: Liver): 335.6 Å²

CC/C=C\C/C=C\C/C=C\C/C=C\C/C=C\C/C=C\CCC(=O)OC[C@@H](COC(=O)CCCCCCC/C=C\C/C=C\CCCCC)OC(=O)CC/C=C\C/C=C\C/C=C\C/C=C\C/C=C\C/C=C\CC [TG 18:2_22:6_22:6] (ion (formula + adduct): [C65H98O6+NH4] 1+)
TIMS collisional cross section ([2]; sample type: Liver): 333.6 Å²

CC/C=C\C/C=C\C/C=C\C/C=C\C/C=C\C/C=C\CCC(=O)OC[C@@H](COC(=O)CCC/C=C\C/C=C\C/C=C\C/C=C\CCCCC)OC(=O)CCC/C=C\C/C=C\C/C=C\C/C=C\CCCCC [TG 20:4_20:4_22:6] (ion (formula + adduct): [C65H98O6+NH4] 1+)
TIMS collisional cross section ([2]; sample type: HeLa): 333.7 Å²

CC/C=C\C/C=C\C/C=C\C/C=C\C/C=C\C/C=C\CCC(=O)OC[C@@H](COC(=O)CCC/C=C\C/C=C\C/C=C\C/C=C\CCCCC)OC(=O)CCCCC/C=C\C/C=C\C/C=C\C/C=C\C/C=C\CC [TG 20:4_22:5_22:6] (ion (formula + adduct): [C67H100O6+NH4] 1+)
TIMS collisional cross section ([2]; sample type: HeLa): 338.1 Å²

CC(C)CC[C@@H](O)[C@](C)(O)[C@H]1CC[C@@]2(O)C3=CC(=O)[C@@H]4C[C@@H](O)[C@@H](O)C[C@]4(C)[C@H]3CC[C@]12C [ponasterone A] (ion (formula + adduct): [C27H44O6+H] 1+)
TIMS collisional cross section ([2]; sample type: plasma): 219 Å²

C1C[C@H](O)C(CO)[C@]2([H])CCC3=C([C@]21C)CC[C@]1(C)[C@@]([H])([C@H](C)CC/C=C(/C)\C)CC[C@]13[H] (stereo partly specified) [zymosterol intermediate 1a] (ion (formula + adduct): [C28H46O2+H] 1+)
TIMS collisional cross section ([2]; sample type: Liver): 219 Å²

Source: the supplement of paper PMC6965134
